Assay results as given in patent publication US20250127905A1, “GLUTARIMIDE COMPOUND AND USE THEREOF” (MEDSHINE DISCOVERY INC., priority 2021, published 2025).
Where a name gives a salt, the structure may show the parent alone.

How the values were obtained:
[1] = Pharmacokinetic evaluation in Beagles; format: in vivo
Method: In this study, male Beagles were selected as test animals, and LC/MS/MS method was used to quantify plasma concentrations of the test compound intravenously injected or intragastrically administered to Beagles at different time points, so as to evaluate the pharmacokinetic profile of the test drug in Beagles.
• Beagles (male, 9 to 11 kg, Jiangsu Yadong Institute of Experimental Animals Co., Ltd.).
A clarified solution or suspension of the test compound was injected into Beagles (feeding) via the tail vein (vehicle: 5% DMSO/10% Solutol/85% H2O), or intragastrically administered into Beagles (feeding). For intravenous injection, 1 mL of blood was collected from the forelimb vein at 0 h (pre-administration) and 0.083 h, 0.25 h, 0.5 h, 1 h, 2 h, 4 h, 6 h, 8 h, and 24 h after administration, and anticoagulated with EDTA-2K. The mixture was thoroughly vortexed and mixed, and centrifuged at 6000 g for 3 minutes at 2 to 8° C. For oral administration, 1 mL of blood was collected from the forelimb vein at 0 h (pre-administration) and 0.083 h, 0.25 h, 0.5 h, 1 h, 2 h, 4 h, 6 h, 8 h, and 24 h after administration, and anticoagulated with EDTA-2K. The mixture was thoroughly vortexed and mixed, and centrifuged at 6000 g for 3 minutes at 2 to 8° C. Plasma concentrations were determined by LC-MS/MS method, and relevant pharmacokinetic parameters were calculated using Phoenix WinNonlin 8.2.0 pharmacokinetic software with non-compartmental model linear-log trapezoidal method.

IRAK4 = target: T1, IRAK4 (Homo sapiens, UniProt Q9NWZ3); experiment: Target protein degradation effect in K562 IRAK4-HiBiT cells (Nano-Glo HiBiT); format: cell-based; conditions: incubated 16 to 18 hours
T1 construct: expressed in transfected cells; host or cells: K562 IRAK4-HiBiT cells
T1 sequence (Q9NWZ3 1-460): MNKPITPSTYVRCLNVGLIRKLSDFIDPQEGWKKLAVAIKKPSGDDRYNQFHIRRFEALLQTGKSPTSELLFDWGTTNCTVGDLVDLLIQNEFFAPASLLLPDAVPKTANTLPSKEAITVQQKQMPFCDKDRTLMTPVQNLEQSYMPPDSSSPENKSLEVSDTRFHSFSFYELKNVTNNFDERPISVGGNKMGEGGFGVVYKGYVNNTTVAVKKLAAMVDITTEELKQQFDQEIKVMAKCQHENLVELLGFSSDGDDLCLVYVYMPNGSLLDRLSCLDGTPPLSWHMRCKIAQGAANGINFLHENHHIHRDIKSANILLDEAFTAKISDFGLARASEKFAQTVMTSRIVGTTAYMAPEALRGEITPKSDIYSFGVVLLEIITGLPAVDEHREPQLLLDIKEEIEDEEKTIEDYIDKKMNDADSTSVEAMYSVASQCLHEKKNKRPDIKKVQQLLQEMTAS
Method: Experimental purpose: In this experiment, the degradation effect of the test compound on the target protein IRAK4 in K562 IRAK4-HiBiT cells was detected.
• Cells: K562 IRAK4-HiBiT cells • Culture media: RPMI 1640+10% FBS+2 mM GlutaMax+1 mM sodium pyruvate+penicillin/streptomycin • Positive control: 1000 nM; negative control: 0.1% DMSO
• (1). The compound to be tested in powder form was dissolved in DMSO to 10 mM as a storage concentration, and 9 μL of the 10 mM compound to be tested was manually pipetted to column 1 and column 13 of an LDV plate using a pipette; • (2). 6 μL of DMSO was added to columns 2 to 12 and 14 to 24 using Multidrop Combi; [0688](3). the compound to be tested was 3-fold diluted (3 μL+6 μL) from columns 1 to 11 and 13 to 23 using Bravo; • (4). 25 nL of compound solution (columns 1 to 24 of the LDV plate) was transferred to an assay plate using Echo according to the plate layout; • (5). 25 nL of 1 mM positive control solution was transferred to the assay plate as a 100% degradation control (i.e., LC, HPE) and 25 nL of DMSO was transferred to the assay plate as a 0% control (i.e., HC, ZPE) using Echo.
• (1). The cell culture medium was discarded, and the cells were washed once with DPBS, digested with trypsin, and counted to prepare a cell suspension of […]; • (2). 25 µL/well of cell suspension was added to the assay plate containing the compound to be tested using Multidrop Combi at medium speed; • (3). the assay plate containing cells was returned to an incubator with 5% CO2 at 37° C. and incubated for 16 to 18 hours.
• (1). 25 µL/well of assay reagent (NanoGlo lysis buffer+substrate+LgBit protein) was added to the assay plate using Multidrop Combi at high speed, and the plate was shaken for 10 minutes; • (2). the plate was centrifuged at 2000 rpm for 1 minute to remove air bubbles; • (3). the plate was read on Envision using US Luminescence detection method.
The inhibition rate (IR) of the test compound was calculated using the following formula: IR (%)=(RLU vehicle control−RLU compound)/(RLU vehicle control−RLU positive control)×100%, and the vehicle control is the blank control. The inhibition rates of compounds at different concentrations were calculated in Excel, and then XLFit software was used to plot inhibition curves and calculate relevant parameters, including minimum inhibition rate, maximum inhibition rate, and DC50.

[2] = Intragastric administration (3 mg/kg)

Area under the drug-time curve (0-inf) [1, 2]: 1.13 µM·h | Peak concentration [1, 2]: 0.12 µM | Time to peak concentration [1, 2]: 4.67 h | Area under the drug-time curve (0-inf) ([1]; Intravenous injection (0.5 mg/kg)): 0.27 µM·h | clearance ([1]; male, beagle, dog, plasma, Intravenous injection (0.5 mg/kg)): 37.5 mL/min/kg | Vd ([1]; male, beagle, dog, plasma, Intravenous injection (0.5 mg/kg), read-out: Apparent volume of distribution): 8.44 L/kg | half-life ([1]; male, beagle, dog, plasma, Intravenous injection (0.5 mg/kg), read-out: Elimination half-life (converted)): 2.93 h | bioavailability ([1]; male, beagle, dog, plasma, oral, IV 0.5 mg/kg, intragastric 3 mg/kg, read-out: Bioavailability F): 70.3% | DC50 (IRAK4): 4.12 nM | Maximum inhibition rate (IRAK4): 106.70%
Structure (SMILES): O=C1CCC(c2noc3c(NC(=O)CN4CCN(C[C@H]5CC[C@H](n6cc(NC(=O)c7cnn8ccc(N9C[C@H]%10C[C@@H]9CO%10)nc78)c(C(F)F)n6)CC5)CC4)cccc23)C(=O)N1 (stereo partly shown) [Hydrochloride of WX015]
